Test results reported in patent US20190119282A1, “IMIDAZOPYRIDAZINES USEFUL AS INHIBITORS OF THE PAR-2 SIGNALING PATHWAY” (Vertex Pharmaceuticals Incorporated, priority 2013, published 2019).

What was measured:
[1] = target: T1, PAR2 (HT-29 cells, trypsin activation) (Homo sapiens, UniProt P55085); test: Ca FLIPR TETRA assay, ANTAGONIST mode, stimulation with 3.1 U/mL trypsin; type: cell-based; settings: HT-29 cells
T1 construct: host or cells: HT-29 cells
T1 sequence (P55085 26-397): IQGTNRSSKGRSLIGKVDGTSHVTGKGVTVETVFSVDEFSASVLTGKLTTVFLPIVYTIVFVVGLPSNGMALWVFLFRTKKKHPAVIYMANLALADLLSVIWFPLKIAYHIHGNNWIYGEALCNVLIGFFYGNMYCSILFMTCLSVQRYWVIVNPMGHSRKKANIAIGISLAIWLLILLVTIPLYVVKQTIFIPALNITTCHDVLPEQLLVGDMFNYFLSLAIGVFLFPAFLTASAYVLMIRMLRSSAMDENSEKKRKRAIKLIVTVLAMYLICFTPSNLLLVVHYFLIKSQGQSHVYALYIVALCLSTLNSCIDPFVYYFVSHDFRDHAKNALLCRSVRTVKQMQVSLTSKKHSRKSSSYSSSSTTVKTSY
Outline: (§1)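 Intracellular calcium is measured by fluorescence in HT-29 cells loaded with calcium 5 reagent. Compounds sit on the cells 30 min at room temperature before challenge with trypsin (3.1 U/mL) or SLIGKV (8 μM) for PAR2, or with thrombin (1 U/mL) or UTP (0.6 μM) as counter-stimuli.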

[2] = system: UTP-stimulated Ca2+ response in HT-29 cells; test: Ca FLIPR TETRA assay, ANTAGONIST mode, stimulation with 0.6 μM UTP; type: cell-based, human; settings: Homo sapiens, HT-29 cells
Outline: as §1

[3] = target: T2, PAR2 (HT-29 cells, SLIGKV activation) (Homo sapiens, UniProt P55085); test: Ca FLIPR TETRA assay, ANTAGONIST mode, stimulation with 8 μM SLIGKV; type: cell-based; settings: HT-29 cells
T2 construct: host or cells: HT-29 cells
T2 sequence (P55085 26-397): T1 sequence (P55085 26-397)
Outline: as §1

[4] = system: Thrombin-stimulated Ca2+ response in HT-29 cells; test: Ca FLIPR TETRA assay, ANTAGONIST mode, stimulation with 1 U/mL Thrombin; type: cell-based, human; settings: Homo sapiens, HT-29 cells
Outline: as §1

[5] = antagonist mode, stimulation with 3.1 U/mL trypsin
[6] = antagonist mode, stimulation with 0.6 μM UTP
[7] = antagonist mode, stimulation with 8 μM SLIGKV
[8] = antagonist mode, stimulation with 1 U/mL Thrombin
[9] = stimulation with 3.1 U/mL trypsin
[10] = stimulation with 1 U/mL Thrombin

IC50 [1, 5] [nM] | IC50 [2, 6] [nM] | IC50 [3, 7] [nM] | IC50 [4, 8] [nM] | IC50 [1, 9] [nM] | IC50 ([2]; stimulation with 0.6 μM UTP) [nM] | IC50 ([3]; stimulation with 8 μM SLIGKV) [nM] | IC50 [4, 10] [nM] | SMILES | also measured
2.3 | > 1000 | 2.9 | > 1000 |  |  |  |  | Cc1ccc(-c2cc(C(C)(C)C)c3nc(C(=O)N4CCNC(=O)C4(C)C)cn3n2)cc1 [Compound I-347] | 
 |  |  |  | 7 | 12000 | 2 | 15000 | CCc1cc(-c2ccc(F)cc2)nn2cc(C(=O)N3CCN(C(=O)[C@H](O)CC(C)(C)C)[C@@H](C)C3)nc12 [Compound I-104] | 
0.1 | > 1000 | 0.08 | > 1000 |  |  |  |  | CC1(C(=O)O)CCC(C(=O)N2CCN(C(=O)c3cn4nc(-c5ccc(Cl)cc5)cc(C(C)(C)C)c4n3)C(C)(C)C2)CC1 (stereo not shown) [Compound I-534] | 
> 1000 | > 1000 | 545 | > 1000 |  |  |  |  | C[C@@H]1C(=O)NCCN1C(=O)c1cn2nc(-c3ccc(F)cc3)cc(C(C)(C)C)c2n1 [Compound I-548] | 
315 | > 1000 | 160 | > 1000 |  |  |  |  | CC1(C)C(=O)OCCN1C(=O)c1cn2nc(-c3ccc(F)cc3)cc(C(F)(F)F)c2n1 [Compound I-514] | 
1.5 | > 1000 | 2.1 | > 1000 |  |  |  |  | CC(C)(C)c1cc(-c2ccc(C(F)(F)F)cc2)nn2cc(C(=O)N3CCN(C(=O)c4ccn[nH]4)CC3(C)C)nc12 [Compound I-401] | 
 |  |  |  | 9300 | 36000 | 6000 | 8500 | CC(C)(O)C1CCCN(C(=O)c2cn3nc(-c4ccc(F)cc4)cc(C(F)(F)F)c3n2)C1 (stereo not shown) [Compound I-69] | 
0.7 | > 1000 | 0.4 | > 1000 |  |  |  |  | CC(C)(C)c1cc(-c2ccc(Cl)c(F)c2)nn2cc(C(=O)N3CCN(C(=O)c4ccn[nH]4)CC3(C)C)nc12 [Compound I-454] | 
26.7 | > 1000 | 16.3 | > 1000 |  |  |  |  | Cc1cc(-c2cc(C(C)C)c3nc(C(=O)N4CCN(C(=O)C(C)(C)O)CC4(C)C)cn3n2)ccc1F [Compound I-223] | 
58.5 | > 1000 | 56.6 | > 1000 |  |  |  |  | Cn1nnnc1N1CCN(C(=O)c2cn3nc(-c4ccc(F)cc4)cc(C(C)(C)C)c3n2)C(C)(C)C1=O [Compound I-248] | 
 |  |  |  | 55 | 38000 | 28 | 35000 | CC(C)c1cc(-c2ccc(F)cc2)nn2cc(C(=O)N3CCN(C(=O)C(C)(C)O)CC3(C)C)nc12 [Compound I-174] | 
8950 | > 50000 | 575 | > 50000 |  |  |  |  | CN(C)C(=O)C(C)(C)c1cc(-c2ccc(F)cc2)nn2cc(C(=O)N3CCNC(=O)C3(C)C)nc12 [Compound I-192] | 

Continued, compound first:

SMILES | IC50 [1, 5] [nM] | IC50 [2, 6] [nM] | IC50 [3, 7] [nM] | IC50 [4, 8] [nM] | IC50 [1, 9] [nM] | IC50 ([2]; stimulation with 0.6 μM UTP) [nM] | IC50 ([3]; stimulation with 8 μM SLIGKV) [nM] | IC50 [4, 10] [nM] | also measured
CC(C)c1cc(-c2ccc(C(F)(F)F)cc2)nn2cc(C(=O)N3CCN(C(=O)c4ccccn4)CC3(C)C)nc12 [Compound I-281] | 3.6 | > 1000 | 2.5 | > 1000 |  |  |  |  | 
Cc1ccc(-c2cc(C(C)C)c3nc(C(=O)N4CCN(C(=O)C5CC(C)(O)C5)CC4(C)C)cn3n2)cc1F (stereo not shown) [Compound I-338] | 1.6 | > 1000 | 2.2 | > 1000 |  |  |  |  | 
CC(C)c1cc(-c2ccc(C(F)F)cc2)nn2cc(C(=O)N3CCN(C(=O)c4nc[nH]n4)CC3(C)C)nc12 [Compound I-294] | 13.7 | > 1000 | 8.8 | > 1000 |  |  |  |  | 
CC(C)c1cc(-c2ccc(F)cc2)nn2cc(C(=O)N3CCN(C(=O)C4(NC(=O)OC(C)(C)C)CC4)[C@@H](C)C3)nc12 [Compound I-148] |  |  |  |  | 96 | 39000 | 52 | > 50000 | 
CC(C)CC(O)C(=O)N1CCN(C(=O)c2cn3nc(-c4ccc(F)cc4)cc(C(C)C)c3n2)C[C@@H]1C (stereo partly shown) [Compound I-109] |  |  |  |  | 4 | 10000 | 0.9 | 11000 | 
C[C@@H]1C[C@H](c2cc(-c3ccc(F)cc3)nn3cc(C(=O)N4CCN(C(=O)c5ccn[nH]5)CC4(C)C)nc23)C[C@H](C)O1 [Compound I-214] | 26.8 | > 1000 | 21.2 | ≥ 1000 |  |  |  |  | 
Cc1cc(-c2cc(C(C)C)c3nc(C(=O)N4CCN(C(=O)[C@H]5C[C@](O)(C(F)(F)F)C5)CC4(C)C)cn3n2)ccc1F [Compound I-260] | 1.1 | > 100 | 0.7 | > 100 |  |  |  |  | 
CC(C)c1cc(-c2ccc(F)cc2)nn2cc(C(=O)N3CCN(C(=O)C(O)c4ccccc4)[C@@H](C)C3)nc12 (stereo partly shown) [Compound I-117] |  |  |  |  | 0.9 | 8100 | 0.3 | 9600 | 
CCOC1CCN(C(=O)c2cn3nc(-c4ccc(F)cc4)cc(C)c3n2)CC1 [Compound I-62] |  |  |  |  | 29000 | 44000 | 7400 | 38000 | 
CC(C)c1cc(-c2ccc(F)cc2)nn2cc(C(=O)N3CCN(C(=O)C(O)c4cccnc4)[C@@H](C)C3)nc12 (stereo partly shown) [Compound I-101] |  |  |  |  | 1400 | 30000 | 7 | 27000 | 
Cc1cc(-c2cc(C(C)C)c3nc(C(=O)N4CCN(C(=O)c5ccncn5)CC4(C)C)cn3n2)ccc1F [Compound I-262] | 14.5 | > 1000 | 9.2 | > 1000 |  |  |  |  | 
CC(C)c1cc(-c2ccc(F)c(Cl)c2)nn2cc(C(=O)N3CCN(C(=O)[C@H]4C[C@@H](O)C4)CC3(C)C)nc12 [Compound I-498] | 7.4 | > 1000 | 5.6 | > 1000 |  |  |  |  | 
C[C@H]1CN(C(=O)c2cn3nc(-c4ccc(F)cc4)cc(C(F)(F)F)c3n2)CCN1C(=O)OCc1ccccc1 [Compound I-46] |  |  |  |  | 95 | > 5000 | 40 | > 5000 | 
CC(C)(C)c1cc(-c2ccc(F)cc2)nn2cc(C(=O)N3CN(Cc4ccccc4)C(=O)C3(C)C)nc12 [Compound I-565] |  |  |  |  |  |  |  |  | IC50 ([1]; antagonist mode, 3.1 U/mL trypsin): 42 nM; IC50 ([2]; antagonist mode, 0.6 μM UTP): > 1000 nM; IC50 ([3]; antagonist mode, 8 μM SLIGKV): 43 nM; IC50 ([4]; antagonist mode, 1 U/mL Thrombin): > 1000 nM
CC(C)c1cc(C2=CCCCC2)nn2cc(C(=O)N3CCN(C(=O)C4(O)CCC4)CC3(C)C)nc12 [Compound I-40, [6-(Cyclohexen-1-yl)-8-isopropyl-imidazo[1,2-b]pyridazin-2-yl]-[4-(1-hydroxycyclobutanecarbonyl)-2,2-dimethyl-piperazin-1-yl]methanone] |  |  |  |  | 370 | 17000 | 72 | 24000 | 
C[C@H]1CN(C(=O)c2cn3nc(-c4ccc(F)cc4)cc(C(F)(F)F)c3n2)CCN1C(=O)C(O)Cc1ccccc1 (stereo partly shown) [Compound I-92] |  |  |  |  | 15 | > 5000 | 10 | > 5000 | 
CC(C)(C)c1cc(C2CCC(F)(F)CC2)nn2cc(C(=O)N3CCN(C(=O)[C@H]4C[C@H](C(=O)O)C4)CC3(C)C)nc12 [Compound I-515] | 110 | > 1000 | 62.5 | > 1000 |  |  |  |  | 
CC(C)c1cc(-c2ccc(F)cc2)nn2cc(C(=O)N3CCN(C(=O)[C@H]4CCC(=O)N4)CC3(C)C)nc12 [Compound I-177] |  |  |  |  | 82 | 40000 | 48 | 35000 | 
CC(C)c1cc(-c2ccc(F)cc2)nn2cc(C(=O)N3CCN(C(=O)C4(NC(=O)OC(C)(C)C)CCCCC4)[C@@H](C)C3)nc12 [Compound I-150] |  |  |  |  | 230 | 84000 | 74 | > 50000 | 
C[C@H]1CN(C(=O)c2cn3nc(-c4ccc(F)cc4)cc(C(F)(F)F)c3n2)CCN1C(=O)Cc1ccccc1 [Compound I-90] |  |  |  |  | 44 | > 5000 | 15 | > 5000 | 
CC(C)c1cc(-c2ccc(F)cc2)nn2cc(C(=O)N3CCN(C(=O)C4(O)CCC4)C[C@@H]3C)nc12 [Compound I-28, [6-(4-fluorophenyl)-8-isopropyl-imidazo[1,2-b]pyridazin-2-yl]-[(2S)-4-(1-hydroxycyclobutanecarbonyl)-2-methyl-piperazin-1-yl]methanone] |  |  |  |  | 15000 | 38000 | 8800 | 33000 | 
CC1(c2cc(-c3ccc(F)cc3)nn3cc(C(=O)N4CCN(C(=O)C5(O)CCOCC5)CC4(C)C)nc23)CC1 [Compound I-31, [6-(4-fluorophenyl)-8-(1-methylcyclopropyl)imidazo[1,2-b]pyridazin-2-yl]-[4-(4-hydroxytetrahydropyran-4-carbonyl)-2,2-dimethyl-piperazin-1-yl]methanone] |  |  |  |  | 42 | 24000 | 31 | 19000 | 
